Results: ChEMBL document CHEMBL4814029, “Design, synthesis, and structure-activity relationship of programmed cell death-1/programmed cell death-ligand 1 interaction inhibitors bearing a benzo[d]isothiazole scaffold” (Eur J Med Chem, 2021)

Legend:
[1] = biological target: Programmed cell death protein 1/Programmed cell death 1 ligand 1 (Homo sapiens, UniProt Q15116+Q9NZQ7); assay: Inhibition of Tag2-PD-1/Tag1-PDL-1 (unknown origin) interaction incubated for 15 mins by TR-FRET assay; type: protein-complex assay
[2] = Inhibition of PD-1/PDL-1-mediated immune checkpoint using CHO cells expressing PDL-1/TCRa and human Jurkat cells expressing PD-1/NFAT-Luc assessed as Jurkat T lymphocyte activation by measuring maximal luminescence value measured after 6 hrs by luciferase reporter gene based luminescence assay
[3] = Growth inhibition of CHO cells expressing PDL-1/TCRa measured after 24 hrs co-culturing with human Jurkat cells expressing PD-1/NFAT-Luc in presence of compound by Cell Titer-Glo luminescent cell viability assay; type: cell-based, Cricetulus griseus; settings: chinese hamster
[4] = Growth inhibition of CHO cells expressing PDL-1/TCRa incubated for 24 hrs by Cell Titer-Glo luminescent cell viability assay; type: cell-based, Cricetulus griseus; settings: chinese hamster
[5] = Inhibition of PD-1/PDL-1-mediated immune checkpoint using CHO cells expressing PDL-1/TCRa and human Jurkat cells expressing PD-1/NFAT-Luc assessed as Jurkat T lymphocyte activation measured after 6 hrs by luciferase reporter gene based luminescence assay
[6] = biological target: Programmed cell death 1 ligand 1 (Homo sapiens, UniProt Q9NZQ7); assay: Inhibition of PDL1 (unknown origin)
Chain of Programmed cell death 1 ligand 1 (Q9NZQ7 whole entry): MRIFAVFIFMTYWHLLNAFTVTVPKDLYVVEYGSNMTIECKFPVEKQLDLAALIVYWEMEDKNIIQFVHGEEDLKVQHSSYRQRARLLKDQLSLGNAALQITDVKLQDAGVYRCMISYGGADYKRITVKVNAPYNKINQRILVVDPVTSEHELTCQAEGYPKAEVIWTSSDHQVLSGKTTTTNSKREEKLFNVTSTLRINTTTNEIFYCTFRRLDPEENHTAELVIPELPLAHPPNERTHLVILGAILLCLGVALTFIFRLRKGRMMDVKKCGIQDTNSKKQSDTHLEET

Chain of Programmed cell death protein 1/Programmed cell death 1 ligand 1 (Q15116 whole entry): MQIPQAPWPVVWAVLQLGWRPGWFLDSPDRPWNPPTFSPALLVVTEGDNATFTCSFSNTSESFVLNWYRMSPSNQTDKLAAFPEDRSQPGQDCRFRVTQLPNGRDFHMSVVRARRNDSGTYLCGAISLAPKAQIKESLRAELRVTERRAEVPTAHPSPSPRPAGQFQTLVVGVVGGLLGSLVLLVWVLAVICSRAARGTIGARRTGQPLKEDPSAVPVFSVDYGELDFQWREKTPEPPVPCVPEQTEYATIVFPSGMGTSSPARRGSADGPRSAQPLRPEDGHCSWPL
Chain of Programmed cell death protein 1/Programmed cell death 1 ligand 1 (Q9NZQ7 whole entry): as the sequence (Q9NZQ7 whole entry) above

Structure (SMILES)	IC50 [1]	also measured
O=C(O)C1CCN1Cc1ccc2c(Nc3cccc(-c4ccc5c(c4)OCCO5)c3Cl)nsc2c1 (racemic)	131 nM	–
O=C(O)[C@H](CO)NCc1ccc2c(Nc3cccc(-c4ccccc4)c3Cl)nsc2c1	40.3 nM	–
O=C(O)C1CCCN1Cc1ccc2c(Nc3cccc(-c4ccc5c(c4)OCCO5)c3Cl)nsc2c1 (racemic)	110 nM	–
C[C@@H](NCc1ccc2c(Nc3cccc(-c4ccc5c(c4)OCCO5)c3Cl)nsc2c1)C(=O)O	43.4 nM	–
CC(C)[C@H](NCc1ccc2c(Nc3cccc(-c4ccc5c(c4)OCCO5)c3Cl)nsc2c1)C(=O)O	73.7 nM	–
O=C(O)[C@H](CO)NCc1ccc2c(Nc3cccc(-c4ccc5c(c4)OCCO5)c3Cl)nsc2c1	8.5 nM	RLU [2]: 3260; GI50 at 24 h [3]: > 30000 nM; GI50 at 24 h [4]: > 30000 nM; EC50 [5]: 5600 nM; inhibition [5]: Dose-Dependent Effect
N#Cc1cncc(COc2cc(OC3CCc4c(-c5ccccc5)cccc43)c(Cl)cc2CN[C@@H](CO)C(=O)O)c1 (stereo partly drawn)	–	IC50 [6]: < 100 nM
O[C@@H]1CCN(Cc2ccc3c(Nc4cccc(-c5ccc6c(c5)OCCO6)c4Cl)nsc3c2)C1	106 nM	–
Cc1cc(C(=O)Nc2cccc(-c3ccc4c(c3)OCCO4)c2C)ncc1CN1CCCC[C@H]1C(=O)O	–	IC50 [6]: < 10 nM
OC1CCCN(Cc2ccc3c(Nc4cccc(-c5ccc6c(c5)OCCO6)c4Cl)nsc3c2)C1 (racemic)	164 nM	–
O=C(O)CCCCOc1ccc(-c2cccc(Nc3nsc4cc(CN[C@@H](CO)C(=O)O)ccc34)c2Cl)cc1	> 1000 nM	–
Cc1c(COc2cc(OCc3cccc(C#N)c3)c(CN3C[C@H](O)C[C@@H]3C(=O)O)cc2Cl)cccc1-c1ccc2c(c1)OCCO2	–	RLU [2]: 2240; GI50 at 24 h [3]: > 30000 nM; GI50 at 24 h [4]: > 30000 nM; EC50 [5]: 3100 nM; inhibition [5]: Dose-Dependent Effect
CC1(O)CCN(Cc2ccc3c(Nc4cccc(-c5ccc6c(c5)OCCO6)c4Cl)nsc3c2)C1 (racemic)	98.7 nM	–
OC1CCCN(Cc2ccc3snc(Nc4cccc(-c5ccc6c(c5)OCCO6)c4Cl)c3c2)C1 (racemic)	327 nM	–
OC1CCN(Cc2ccc3snc(Nc4cccc(-c5ccc6c(c5)OCCO6)c4Cl)c3c2)C1 (racemic)	251 nM	–
OC1CCN(Cc2ccc3c(Nc4cccc(-c5ccc6c(c5)OCCO6)c4Cl)nsc3c2)C1 (racemic)	58.4 nM	–
O[C@H]1CCN(Cc2ccc3c(Nc4cccc(-c5ccc6c(c5)OCCO6)c4Cl)nsc3c2)C1	109 nM	–
O=C(O)[C@@H]1C[C@@H](O)CN1Cc1ccc2c(Nc3cccc(-c4ccc5c(c4)OCCO5)c3Cl)nsc2c1	17.7 nM	–
CN(CC(=O)O)Cc1ccc2c(Nc3cccc(-c4ccc5c(c4)OCCO5)c3Cl)nsc2c1	147 nM	–
O=C(O)C[C@H](NCc1ccc2c(Nc3cccc(-c4ccc5c(c4)OCCO5)c3Cl)nsc2c1)C(=O)O	474 nM	–
COc1ccc(-c2cccc(Nc3nsc4cc(CN[C@@H](CO)C(=O)O)ccc34)c2Cl)cc1OC	> 1000 nM	–
O=C(O)[C@H](CO)NCc1ccc2c(Nc3cccc(-c4cccc(O)c4)c3Cl)nsc2c1	143 nM	–

Structure (SMILES)	IC50 [1]	also measured
OC1CCN(Cc2ccc3snc(Nc4cccc(-c5ccc6c(c5)OCCO6)c4Cl)c3c2)CC1	854 nM	–
Cc1c(Nc2nsc3cc(CN[C@@H](CO)C(=O)O)ccc23)cccc1-c1ccc2c(c1)OCCO2	78 nM	–
COc1c(Nc2nsc3cc(CN[C@@H](CO)C(=O)O)ccc23)cccc1-c1ccc2c(c1)OCCO2	> 1000 nM	–
O=C(O)[C@H](CO)NCc1ccc2c(Nc3cccc(-c4ccc5c(c4)OCO5)c3Cl)nsc2c1	34.7 nM	–
O=C(O)CNCc1ccc2c(Nc3cccc(-c4ccc5c(c4)OCCO5)c3Cl)nsc2c1	35.6 nM	–
C[C@H](NCc1ccc2c(Nc3cccc(-c4ccc5c(c4)OCCO5)c3Cl)nsc2c1)C(=O)O	44.4 nM	–
O=C(O)C1CCCN(Cc2ccc3c(Nc4cccc(-c5ccc6c(c5)OCCO6)c4Cl)nsc3c2)C1 (racemic)	517 nM	–
O=C(O)[C@H](CO)NCc1ccc2c(Nc3cccc(-c4ccc5nccnc5c4)c3Cl)nsc2c1	> 1000 nM	–
O=C(O)CCCCOc1cccc(-c2cccc(Nc3nsc4cc(CN[C@@H](CO)C(=O)O)ccc34)c2Cl)c1	> 1000 nM	–
O=C(O)C1CCN(Cc2ccc3c(Nc4cccc(-c5ccc6c(c5)OCCO6)c4Cl)nsc3c2)C1 (racemic)	73.3 nM	–
O=C(O)[C@H](CO)NCc1ccc2c(Nc3cccc(-c4ccc5c(c4)OCCO5)c3F)nsc2c1	486 nM	–
O=C(O)[C@@H](CO)NCc1ccc2c(Nc3cccc(-c4ccc5c(c4)OCCO5)c3Cl)nsc2c1	10.8 nM	–
O=C(O)[C@H](CO)NCc1ccc2c(Nc3cccc(-c4ccc5c(c4)OCCO5)c3)nsc2c1	> 1000 nM	–
OC1CCN(Cc2ccc3c(Nc4cccc(-c5ccc6c(c5)OCCO6)c4Cl)nsc3c2)CC1	158 nM	–
C[C@@H](O)[C@H](NCc1cc(Cl)c(OCc2cccc(-c3ccccc3)c2Br)cc1OCC1CC1)C(=O)O	–	IC50 [6]: 10.2 nM
O=C(O)C1CN(Cc2ccc3c(Nc4cccc(-c5ccc6c(c5)OCCO6)c4Cl)nsc3c2)C1	72.6 nM	–
N#Cc1c(NC(=O)c2nc3c(s2)CNCC3)cccc1-c1ccc2c(c1)OCCO2	–	IC50 [6]: < 100 nM
COC[C@H](NCc1ccc2c(Nc3cccc(-c4ccc5c(c4)OCCO5)c3Cl)nsc2c1)C(=O)O	79.1 nM	–
O=C(O)[C@H](CO)NCc1ccc2c(Nc3cccc(-c4cccc5c4CCN5CCCN4CCC(O)C4)c3Cl)nsc2c1 (stereo partly drawn)	231 nM	–
O=C(O)C1CCN(Cc2ccc3c(Nc4cccc(-c5ccc6c(c5)OCCO6)c4Cl)nsc3c2)CC1	60.1 nM	–
OCC(CO)NCc1ccc2c(Nc3cccc(-c4ccc5c(c4)OCCO5)c3Cl)nsc2c1	58.3 nM	–
CC1(O)CCN(Cc2ccc3snc(Nc4cccc(-c5ccc6c(c5)OCCO6)c4Cl)c3c2)C1 (racemic)	177 nM	–
